According to patent US10011571B2, “Preparation method for aromatic heterocyclic compound used as selective JAK3 and/or JAK1 kinase inhibitor and application of aromatic heterocyclic compound” (SHENZHEN CHIPSCREEN BIOSCIENCES, LTD., priority 2014, dated 2018):

Assays:
[1] = test system: IL-4/JAK1 & 3/STAT6 (THP-1); assay: Intracellular activity assay, IL-4 induced STAT6 phosphorylation in THP-1; type: cell-based; conditions: Homo sapiens; inhibition of STAT6 phosphorylation, THP-1, IL-4 10 ng/mL
Text: (§1) In this experiment, western blot (WB) and flow cytometry are used to evaluate the intracellular activities of the test compounds by comparing the relative levels of the signals of phosphorylated and non-phosphorylated STATs in 5 cell models, including U937, THP-1, CTLL-2, UT-7/EPO and activated human periphery blood cell (hPBC). The primary antibody and secondary antibody used in WB hybridization in this experiment are purchased from Cell Signaling Company (http://www.cellsignal.com). The fluorescence-labeled antibodies used in flow cytometry are purchased from eBiosciences Company (http://www.ebioscience.com).
THP-1 is a monocytic cell line. […] The intracellular inhibitory activity of the compounds on JAK1/3 can be evaluated by detecting the change of the phosphorylation level of STAT6. […]
(2) Protein extraction and WB detection: after extraction, the protein content is determined. […]
(3) Signal detection: the hybridization signal is detected by X-ray imaging. The grey scale signal obtained by scanning is converted to digital signal, and the signal intensities for both phosphorylated STATs and STATs are each calculated to evaluate the phosphorylation inhibitory activities of the compounds on STATs. […]
(§2) (2) Cell fixation and fluorescence labeling: the cells are fixed using paraformaldehyde (30 min), and subsequently treated for membrane permeability in chilled methanol (15 min). […]

[2] = test system: collagen-induced arthritis (CIA) model of rats; assay: Collagen-induced arthritis (CIA) model of rats; type: in vivo; conditions: rat CIA; for swelling degree induced by arthritis in the rats, compared to the solvent group: 40 mg/kg i.g.; for Inhibitory rate for arthritis score % / Inhibitory rate for paw volume % / Inhibitory rate for toe thickness % / Body weight growth rate %: 14 days after administration, Examples 40 mg/kg i.g. twice/day, MTX 5 mg/kg i.p. twice a week; for Body weight growth rate %: solvent = 100.0; for toxicity to the rats judged from body weight: compared to the solvent group
Method: Objective: in this test, arthritis is induced by chicken collagen in Wistar rats. After in vivo administration of the compounds of Example 7 and Example 22, the change of the disease index for arthritis in rats is evaluated to determine the therapeutic effect of the test compounds on rat arthritis.
Experimental animals: 36 female Wistar rats were purchased from the animal experiment center, Sun Yat-Sen University (Guangzhou) with the body weight ranging from 180 to 200 g at the beginning of experiment. Four groups (8 rats in each group) were used as the arthritis model, and another group (4 rats) was used as normal control.
Materials: chicken type II collagen and Freund's complete adjuvant were purchased from Beijing Biolead Science and Technology Development Co., Ltd. Positive control: methotrexat (MTX).
Preparation method: the test compounds were prepared by adding them to freshly prepared 0.2% CMC-Na+0.1% Tween-80 solution in sterile water to a desired concentration and thoroughly mixing through ultrasound.
CIA model: the chicken collagen was fully emulsified in equal volume of freud's complete adjuvant, and subcutaneously injected at the tail root of the rat on day 0 for sensitization (250 μL/rat). Another injection was performed at the tail root on day 7 for supplementary immunization (100 μL/rat). After arthritis occurred (on about day 13), the rats were randomly divided into 4 groups with 8 rats in each group. Administration started on day 14 after the first immunization, and lasted for 14 days. The limbs of a rat were visually inspected, and the severity of arthritis was scored in a range from […]: 0=normal; 1=a slight symptom, with signs, such as red and swollen ankle or wrist; 2=moderate red and swollen ankle or wrist; 3=severe red and swollen paw, including toes; 4=severe swollen joint accompanied with dysfunction; the highest score for each rat was 16. The thickness of toes of posterior limbs and the paw volume were measured at the same time.
Medication: the rats were i.g. administered with the compound of Example 7 at a concentration of 40 mg/kg twice/day; or the rats were i.g. administered with the compound of Example 22 at a concentration of 40 mg/kg twice/day. For the positive control, 5 mg/kg MTX was intraperitoneally injected twice a week. The i.g. administration of solvent was used as the negative control. The data obtained 14 days after administration and before administration were compared.

[3] = test system: IL-2/JAK1 & 3/STAT5 (CTLL-2); assay: Intracellular activity assay, IL-2 induced STAT5 phosphorylation in CTLL-2; type: cell-based; conditions: Mus musculus; inhibition of STAT5 phosphorylation, CTLL-2, IL-2 10 ng/mL
Text: as §1
CTLL-2 is a T-cell line, and its proliferation and growth depends on cytokine IL-2. […] The intracellular inhibitory activity of the compounds on JAK1/3 can be evaluated by detecting the change of the phosphorylation level of STAT5. […]
as §2
(3) Detection by flow cytometry: the detection is carried out using Guava® easyCyte flow cytometer according to the instruction. The median fluorescent intensity (MFI) of a sample is detected using an appropriate cell population. […]

Row | Compound | IC50 [1] [nM] | swelling degree induced by arthritis in the rats, compared to the solvent group [2] | Inhibitory rate for arthritis score % [2] [%] | Inhibitory rate for paw volume % [2] [%] | Inhibitory rate for toe thickness % [2] [%] | Body weight growth rate % [2] [%] | toxicity to the rats judged from body weight [2] | IC50 [3] [nM]
1 | C=CC(=O)N(C)c1cc(Nc2ncc(Cl)c(NCCCNC(=O)c3ccc(C#N)cc3)n2)ccc1F [Example 7, N-(3-(5-chloro-2-(4-fluoro-3-(N-methylacrylamido)phenylamino)pyrimidinyl-4-amino)propyl)-4-cyano-benzamide] | 1690 | significantly inhibited | 75.0 | 63.6 | 74.3 | 102.2 | no significant toxicity | 80
2 | C=CC(=O)N(C)c1cc(Nc2ncc(Cl)c(NCCCNC(=O)c3ccc(F)cc3)n2)ccc1F [Example 23, N-(3-(5-chloro-2-(4-fluoro-3-(N-methylacrylamido)phenylamino)pyrimidinyl-4-amino)propyl)-4-fluorobenzamide] | 1730 |  |  |  |  |  |  | 130
3 | C=CC(=O)N(C)c1cc(Nc2ncc(Cl)c(NCCCNC(=O)c3ccc(C(F)(F)F)cc3)n2)ccc1F [Example 22, N-(3-(5-chloro-2-(4-fluoro-3-(N-methylacrylamido)phenylamino)pyrimidinyl-4-amino)propyl)-4-trifluoromethylbenzamide] |  | certain inhibitory effect | 25.5 | 24.6 | 13.9 | 102.0 | no significant toxicity | 
